Experimental data published in patent US20050208125A1, “Substantially pure solid form of the enol tautomer of 3-indolypyruvic acid for use in the treatmetn of central nervous system disturbances” (priority 2002, published 2005).
Read-outs that look alike come from different tables or passages of the source.

Tests used:
[1] = test system: Human melanoma cells (A2058 line); assay: Melanoma cell invasion through Matrigel; format: cell-based; settings: Homo sapiens, mean of three experiments ± SD
Excerpt: Matrigel is an extracellular biological matrix extracted from the Englebreth-Holm-Swarm murine sarcoma, composed of the major components of the basement membrane like laminin, entactin, collagen IV and proteoglycans. At room temperature, Matrigel forms a gel that can promote the growth of primary and continuous cell lines, and moreover can act as medium (substrate) for the adhesion, the differentiation, the migration and the invasion of tumor cell lines. Due to such features, a Matrigel test is commonly used in order to characterize the activity of substances capable of interfering with the motility of tumor cells and of inflammatory response cells. The test is conducted in wells partitioned by an 8 micron pore size membrane: Matrigel (12.4 micrograms) is uniformly spread on the membrane, whereas a chemoattractant (600 microliters), consisting of the supernatant of a murine hembryo cell line (3T3) is inserted in the bottom section of the well. The cells to be tested are seeded in the top section of the well, whereas the compounds that could interfere with their motility are placed above as well as below the membrane, so as to prevent the formation of a concentration gradient. At the end of the experiment, the cells that have crossed the membrane are counted.
Human melanoma cells (A2058 line) were cultured in MEM medium, in a 5% CO2 at 37° C. Having reached the desired growth level, the (100.000) cells were seeded in the top section of the well. The enol of 3-indolylpyruvic acid and its salts, solubilized in the cell culture medium were placed in the top and bottom section of the well.

[2] = Incubation in rat liver homogenates; format: in vitro ADME
Excerpt: The near-pure enol tautomer of 3-indolylpyruvic acid, obtained by the method described above in examples 1 and 2, was investigated on rat tissue homogenates, in order to highlight its participation in the methabolic pathways characterizing the use of tryptophan and of its derivatives in mammalian cells. […] This phenomenon, ascribed to the presence in biological fluids of a specific tautomerase already reported in literature, allows the enol form to be subjected to biochemical transformations by specific enzymes active on the indoles. In particular, when the enol form of the ketoacid is incubated in rat liver homogenates, […] is rather linear in time, is independent from the pH—at least in the 6.5÷7.5 interval—and it leads to the conversion of over the 50% of the ketoacid in 5 hours.

[3] = Plasma levels in rats after gastric lavage; format: in vivo; settings: rat, oral, read-out: plasma level
Experimental: Raising the dose to 400 mg/Kg, values of 160±13 mcg/ml for acute administration and of 189±68 mcg/ml for chronic administration were obtained.

[4] = Stability of the enol form in solution (UV 325 nm peak, HPLC); format: physicochemical
Excerpt: When the enol tautomer of 3-indolylpyruvic acid is solubilized in an aqueous environment, the decline of the UV peak at 325 nm, more or less quick according to the solution temperature, the pH and the type of buffer used is immediately observed. […] In the experimental conditions used, a quicker disappearance of the 325 nm peak is observed when the enol tautomer of the ketoacid is solubilized in diluted NaOH solutions; it follows that in this solvent the keto-enol equilibrium shifts towards the keto form in a few seconds.
At longer incubation times also the gem-diole form disappears, without giving rise to the keto form.
In particular, using a phosphate solution at pH 7.4, it is observed that the enol form drops to the 44% already at +30 min, whereas the gem-diole form begins to predominate (increase) at +1 hour (44% vs 23%), yet it stabilizes at about +2 hours (49%), and then gradually declines.

rats = assay: Pharmacological tests in rats, oral and IP; format: in vivo, rat
[5] = Plasma levels in dogs after administration in food-mixed pellets; format: in vivo; settings: dog, oral
Experimental: In dogs as well analogous results were obtained, as the administration (in food-mixed pellets) of 100 mg/Kg enol form of 3-indolylpyruvic acid led, at +1 hour, to plasma rates of 106±47 -mcg/ml in acute, and of 97±17 mcg/ml in chronic. 285 mg/Kg doses produced, at +1 hour,concentrations of 136±17 mcg/ml in acute, and of 120±8 mcg/ml in chronic.

[6] = Solubility of the enol form in solvents; format: physicochemical
[7] = Intravenous injection in baboons, enol and kynurenic acid plasma kinetics; format: in vivo, baboon; settings: intravenously, 200 mg/Kg
Experimental: (§1) It is already known from literature that the 3-indolylpyruvic acid may function, in suitable methabolic situations, as direct precursor to the kynurenic acid, the most important endogenous inhibitor of the excitatory amino acids. […] Therefore, comparison tests were conducted between the enol form of 3-indolylpyruvic acid, obtained according to the method described above in examples 1 and 2, the keto form (obtained solubilizing a standard preparation of 3-indolylpyruvic acid obtained from commercial sources in 0.1M NaOH), and a mixture of the two forms (obtained solubilizing the above standard preparation in a pH 7.4 phosphate buffer). […] Moreover, the enol form is found to be 100 to 1000 times more powerful than the keto one, both in protecting membrane phospholipids from degradation and in blocking luminol chemiluminescence induced by a xanthin/xanthin oxidase mixture. Concerning the formation of kynurenic acid, under the same experimental conditions the enol form of 3-indolylpyruvic acid always produced from 20 to 100 times more kynurenic acid than the keto form or the mixture of the two forms. […] Concomitantly, kynurenic acid began to form, reaching a plasma peak at +90-+180 min from the enol injection, with remarkable interindividual variations.

superoxide anion = assay: Neutralizing power towards oxygen free radicals; format: biochemical; settings: contrarily to the keto tautomer form
Experimental: as §1

[8] = test system: LAN5 human neuroblastoma cells; assay: Neuronal cell sprouting (neurite length); format: cell-based; settings: 10 μM, 7 days, ± SD, untreated 21.8 ± 8.8
Experimental: LAN5 human neuroblastoma cells were seeded in 6-well plates (25.000 cells/well) in DMEM (Dulbecco's Modified Eagle's Medium) medium, additioned with 10% -fetal serum and 40 micrograms/ml gentamycin. After 24 hours, the enol tautomer of 3-indolylpyruvic acid or its derivatives, at an end concentration of 10 μM was added to the culture medium. The treatment was continued for 7 days, with medium replacement and addition of the compound under test every three days. At +7 days the cells were photopgraphed, using a Leitz Dialux 20 microscope. Then, neurite length was measured.
The results, reported in the following Table, express, in microns, the average length of the neurites for each treatment; ± is the standard deviation: […]

[9] = Incubation in rat tissue homogenates, enol form versus keto form; format: in vitro ADME; settings: pH 7.4, rat tissue homogenates
Excerpt: The near-pure enol tautomer of 3-indolylpyruvic acid, obtained by the method described above in examples 1 and 2, was investigated on rat tissue homogenates, in order to highlight its participation in the methabolic pathways characterizing the use of tryptophan and of its derivatives in mammalian cells. […] This phenomenon, ascribed to the presence in biological fluids of a specific tautomerase already reported in literature, allows the enol form to be subjected to biochemical transformations by specific enzymes active on the indoles. In particular, when the enol form of the ketoacid is incubated in rat liver homogenates, a gradual transformation of the enol of 3-indolylpyruvic acid in tryptophan is observed: the transformation is rather linear in time, is independent from the pH—at least in the 6.5÷7.5 interval—and it leads to the conversion of over the 50% of the ketoacid in 5 hours.

[10] = phosphate solution pH 7.4, +1 hour

Structure (SMILES): O=C(O)/C(O)=C/c1c[nH]c2ccccc12 [3-IPA ENOL, enol tautomer of 3-indolylpyruvic acid]
- inhibition at 125 µM ([1]; 125 μM): 44 ± 5%
- inhibition at 250 µM ([1]; 250 μM): 77 ± 11%
- inhibition at 500 µM ([1]; 500 μM): 97 ± 2%
- transformation into 3-indolyl-lactic acid [2]: No transformation
- concentration at 1 hour ([3]; 100 mg/kg, chronic): 183 ± 78 µg/mL
- concentration at 1 h ([3]; 100 mg/kg, gastric lavage, 100 mg/Kg, acute, +1 hour): 74 ± 14 µg/mL
- concentration at 1 hour ([3]; 400 mg/kg, acute): 160 ± 13 µg/mL
- concentration at 1 hour ([3]; 400 mg/kg, chronic): 189 ± 68 µg/mL
- time in which keto-enol equilibrium shifts towards the keto form ([4]; diluted NaOH solutions): a few seconds
- stability in methanol ([4]; methanol, several days at room temperature): extremely stable
- enol form remaining ([4]; phosphate solution pH 7.4, +30 min): 44%
- enol form remaining [4, 10]: 23%
- gem-diole form formed [4, 10]: 44%
- gem-diole form formed ([4]; phosphate solution pH 7.4, about +2 hours): ~49%
- observed effects compared with the mixture of the two tautomers (rats; mixture in pH 7.4 phosphate buffer): clearly superior
- pharmacological properties on the cardiovasculary system (rats; orally and by IP injection): pressure reduction in hypertensive rats, but not in normotensive rats
- pharmacological properties on the central nervous system (rats; orally and by IP injection): prolongation of sleep, central analgesia, protection from NMDA-induced convulsions, reduction of toxic effects from opiates, anxiolytic and antidepressant effects, stress inhibition
- concentration at 1 h ([5]; 100 mg/kg, chronic, read-out: plasma rate): 97 ± 17 µg/mL
- concentration at 1 h ([5]; 100 mg/kg, food-mixed pellets, 100 mg/Kg, acute, read-out: plasma rate): 106 ± 47 µg/mL
- concentration at 1 h ([5]; 285 mg/kg, acute, read-out: plasma concentration): 136 ± 17 µg/mL
- concentration at 1 h ([5]; 285 mg/kg, chronic, read-out: plasma concentration): 120 ± 8 µg/mL
- solubility in acetone ([6]; acetone): highly soluble
- solubility in chloroform ([6]; chloroform): wholly insoluble
- solubility in ethanol ([6]; ethanol): highly soluble
- solubility in ethyl ether ([6]; ethyl ether): slightly soluble
- solubility in methanol ([6]; methanol): highly soluble
- solubility in water ([6]; water): wholly insoluble
- enol plasma concentration curve [7]: remaining at clearly detectable levels for a few hours
- neutralizing power towards superoxide anion and hydroxyl ions (superoxide anion): strong neutralizing power
- average length of the neurites [8]: 31.9 ± 6.8 micrometers
- stability in slightly alkaline buffer environments [9]: good stability
